Key:
[1] = biological target: Heat shock protein HSP 90-alpha (Homo sapiens, UniProt P07900); assay: Inhibition of FITC-labeled geldanamycin binding to human Hsp90alpha by fluorescence polarization assay
[2] = Growth inhibition of human HFF1 cells at 10 uM after 72 hrs by MTT assay; assay type: cell-based, HFF-1
[3] = Growth inhibition of human HCT116 cells at 10 uM after 72 hrs by MTT assay; assay type: functional; settings: HCT-116, 72 h
[4] = Growth inhibition of human SKBR3 cells at 10 uM after 72 hrs by MTT assay; assay type: functional; settings: SK-BR-3, 72 h
[5] = Growth inhibition of human MCF7 cells at 10 uM after 72 hrs by MTT assay; assay type: functional; settings: MCF7, 72 h
[6] = Growth inhibition of human MDA-MB-468 cells after 48 hrs by sulforhodamine B assay; assay type: functional; settings: MDA-MB-468, 48 h
[7] = Cytotoxicity against human Hs 578T cells after 48 hrs by sulforhodamine B assay; assay type: functional
[8] = Cytotoxicity against human NCI-ADR-RES cells after 48 hrs by sulforhodamine B assay; assay type: functional
[9] = Cytotoxicity against human A549/ATCC cells after 48 hrs by sulforhodamine B assay; assay type: functional; settings: A549, 48 h
[10] = Cytotoxicity against human SR cells after 48 hrs by sulforhodamine B assay; assay type: functional
cells [11] = settings: Homo sapiens, T47D, 48 h
Description: Cytotoxicity against human T47D cells after 48 hrs by sulforhodamine B assay

cells [12] = settings: Homo sapiens, BT-549, 48 h
Description: Cytotoxicity against human BT549 cells after 48 hrs by sulforhodamine B assay

cells [13] = settings: Homo sapiens, MDA-MB-231, 48 h
Description: Cytotoxicity against human MDA-MB-231 cells after 48 hrs by sulforhodamine B assay

cells [14] = settings: Homo sapiens, MCF7, 48 h
Description: Cytotoxicity against human MCF7 cells after 48 hrs by sulforhodamine B assay

cells [15] = settings: Homo sapiens, DU-145, 48 h
Description: Cytotoxicity against human DU145 cells after 48 hrs by sulforhodamine B assay

cells [16] = settings: Homo sapiens, PC-3, 48 h
Description: Cytotoxicity against human PC3 cells after 48 hrs by sulforhodamine B assay

cells [17] = settings: Homo sapiens, UO-31, 48 h
Description: Cytotoxicity against human UO31 cells after 48 hrs by sulforhodamine B assay

cells [18] = settings: Homo sapiens, TK-10, 48 h
Description: Cytotoxicity against human TK10 cells after 48 hrs by sulforhodamine B assay

cells [19] = settings: Homo sapiens, SN12C, 48 h
Description: Cytotoxicity against human SN12C cells after 48 hrs by sulforhodamine B assay

cells [20] = settings: Homo sapiens, RXF 393, 48 h
Description: Cytotoxicity against human RXF393 cells after 48 hrs by sulforhodamine B assay

cells [21] = settings: Homo sapiens, CAKI-1, 48 h
Description: Cytotoxicity against human Caki1 cells after 48 hrs by sulforhodamine B assay

cells [22] = settings: Homo sapiens, ACHN, 48 h
Description: Cytotoxicity against human ACHN cells after 48 hrs by sulforhodamine B assay

cells [23] = settings: Homo sapiens, A498, 48 h
Description: Cytotoxicity against human A498 cells after 48 hrs by sulforhodamine B assay

cells [24] = settings: Homo sapiens, SK-OV-3, 48 h
Description: Cytotoxicity against human SKOV3 cells after 48 hrs by sulforhodamine B assay

cells [25] = settings: Homo sapiens, 786-0, 48 h
Description: Cytotoxicity against human 786-0 cells after 48 hrs by sulforhodamine B assay

cells [26] = settings: Homo sapiens, OVCAR-8, 48 h
Description: Cytotoxicity against human OVCAR8 cells after 48 hrs by sulforhodamine B assay

cells [27] = settings: Homo sapiens, OVCAR-5, 48 h
Description: Cytotoxicity against human OVCAR5 cells after 48 hrs by sulforhodamine B assay

cells [28] = settings: Homo sapiens, OVCAR-4, 48 h
Description: Cytotoxicity against human OVCAR4 cells after 48 hrs by sulforhodamine B assay

cells [29] = settings: Homo sapiens, OVCAR-3, 48 h
Description: Cytotoxicity against human OVCAR3 cells after 48 hrs by sulforhodamine B assay

cells [30] = settings: Homo sapiens, IGROV-1, 48 h
Description: Cytotoxicity against human IGROV1 cells after 48 hrs by sulforhodamine B assay

cells [31] = settings: Homo sapiens, UACC-62, 48 h
Description: Cytotoxicity against human UACC62 cells after 48 hrs by sulforhodamine B assay

cells [32] = settings: Homo sapiens, UACC-257, 48 h
Description: Cytotoxicity against human UACC257 cells after 48 hrs by sulforhodamine B assay

cells [33] = settings: Homo sapiens, SK-MEL-28, 48 h
Description: Cytotoxicity against human SK-MEL-28 cells after 48 hrs by sulforhodamine B assay

cells [34] = settings: Homo sapiens, SK-MEL-5, 48 h
Description: Cytotoxicity against human SK-MEL-5 cells after 48 hrs by sulforhodamine B assay

cells [35] = settings: Homo sapiens, SK-MEL-2, 48 h
Description: Cytotoxicity against human SK-MEL-2 cells after 48 hrs by sulforhodamine B assay

cells [36] = settings: Homo sapiens, MDA-MB-435, 48 h
Description: Cytotoxicity against human MDA-MB-435 cells after 48 hrs by sulforhodamine B assay

cells [37] = settings: Homo sapiens, M14, 48 h
Description: Cytotoxicity against human M14 cells after 48 hrs by sulforhodamine B assay

cells [38] = settings: Homo sapiens, Malme-3M, 48 h
Description: Cytotoxicity against human MALME-3M cells after 48 hrs by sulforhodamine B assay

cells [39] = settings: Homo sapiens, LOX IMVI, 48 h
Description: Cytotoxicity against human LOXIMVI cells after 48 hrs by sulforhodamine B assay

cells [40] = settings: Homo sapiens, U-251, 48 h
Description: Cytotoxicity against human U251 cells after 48 hrs by sulforhodamine B assay

cells [41] = settings: Homo sapiens, SNB-19, 48 h
Description: Cytotoxicity against human SNB19 cells after 48 hrs by sulforhodamine B assay

cells [42] = settings: Homo sapiens, SNB-75, 48 h
Description: Cytotoxicity against human SNB75 cells after 48 hrs by sulforhodamine B assay

cells [43] = settings: Homo sapiens, SF-539, 48 h
Description: Cytotoxicity against human SF539 cells after 48 hrs by sulforhodamine B assay

cells [44] = settings: Homo sapiens, SF-295, 48 h
Description: Cytotoxicity against human SF295 cells after 48 hrs by sulforhodamine B assay

cells [45] = settings: Homo sapiens, SF-268, 48 h
Description: Cytotoxicity against human SF268 cells after 48 hrs by sulforhodamine B assay

cells [46] = settings: Homo sapiens, SW-620, 48 h
Description: Cytotoxicity against human SW620 cells after 48 hrs by sulforhodamine B assay

cells [47] = settings: Homo sapiens, KM12, 48 h
Description: Cytotoxicity against human KM12 cells after 48 hrs by sulforhodamine B assay

cells [48] = settings: Homo sapiens, HT-29, 48 h
Description: Cytotoxicity against human HT-29 cells after 48 hrs by sulforhodamine B assay

cells [49] = settings: Homo sapiens, HCT-116, 48 h
Description: Cytotoxicity against human HCT116 cells after 48 hrs by sulforhodamine B assay

cells [50] = settings: Homo sapiens, HCT-15, 48 h
Description: Cytotoxicity against human HCT15 cells after 48 hrs by sulforhodamine B assay

cells [51] = settings: Homo sapiens, HCC 2998, 48 h
Description: Cytotoxicity against human HCC2998 cells after 48 hrs by sulforhodamine B assay

cells [52] = settings: Homo sapiens, COLO 205, 48 h
Description: Cytotoxicity against human COLO205 cells after 48 hrs by sulforhodamine B assay

cells [53] = settings: Homo sapiens, NCI-H522, 48 h
Description: Cytotoxicity against human NCI-H522 cells after 48 hrs by sulforhodamine B assay

cells [54] = settings: Homo sapiens, NCI-H460, 48 h
Description: Cytotoxicity against human NCI-H460 cells after 48 hrs by sulforhodamine B assay

cells [55] = settings: Homo sapiens, NCI-H23, 48 h
Description: Cytotoxicity against human NCI-H23 cells after 48 hrs by sulforhodamine B assay

cells [56] = settings: Homo sapiens, NCI-H226, 48 h
Description: Cytotoxicity against human NCI-H226 cells after 48 hrs by sulforhodamine B assay

cells [57] = settings: Homo sapiens, HOP-62, 48 h
Description: Cytotoxicity against human HOP62 cells after 48 hrs by sulforhodamine B assay

cells [58] = settings: Homo sapiens, HOP-92, 48 h
Description: Cytotoxicity against human HOP92 cells after 48 hrs by sulforhodamine B assay

cells [59] = settings: Homo sapiens, EKVX, 48 h
Description: Cytotoxicity against human EKVX cells after 48 hrs by sulforhodamine B assay

cells [60] = settings: Homo sapiens, RPMI-8226, 48 h
Description: Cytotoxicity against human RPMI8226 cells after 48 hrs by sulforhodamine B assay

cells [61] = settings: Homo sapiens, MOLT-4, 48 h
Description: Cytotoxicity against human MOLT4 cells after 48 hrs by sulforhodamine B assay

cells [62] = settings: Homo sapiens, K562, 48 h
Description: Cytotoxicity against human K562 cells after 48 hrs by sulforhodamine B assay

cells [63] = settings: Homo sapiens, CCRF-CEM, 48 h
Description: Cytotoxicity against human CCRF-CEM cells after 48 hrs by sulforhodamine B assay

cells [64] = settings: Homo sapiens, HL-60, 48 h
Description: Cytotoxicity against human HL-60(TB) cells after 48 hrs by sulforhodamine B assay

[65] = biological target: T1, Heat shock protein HSP90 (Homo sapiens) (UniProt P07900+P08238); assay: Inhibition of Hsp90 in human MCF7 cells assessed as proteasomal degradation of EGFR after 24 hrs by Western blot analysis; assay type: cell-based
[66] = biological target: T1, Heat shock protein HSP90 (Homo sapiens); assay: Inhibition of Hsp90 in human MCF7 cells assessed as proteasomal degradation of Her2 after 24 hrs by Western blot analysis; assay type: cell-based
[67] = biological target: T1, Heat shock protein HSP90 (Homo sapiens); assay: Inhibition of Hsp90 in human MCF7 cells assessed as proteasomal degradation of Akt after 24 hrs by Western blot analysis; assay type: cell-based
[68] = biological target: T1, Heat shock protein HSP90 (Homo sapiens); assay: Inhibition of Hsp90 in human MCF7 cells assessed as proteasomal degradation of Cdk4 after 24 hrs by Western blot analysis; assay type: cell-based
[69] = biological target: T1, Heat shock protein HSP90 (Homo sapiens); assay: Inhibition of HSP90 in human MCF7 cells assessed as increase in expression level of Hsp70 after 24 hrs by Western blot analysis; assay type: cell-based

COc1c(C)cnc(Cn2cc(Cc3ccc(Cl)cc3)c3c(Cl)nc(N)nc32)c1C
IC50 [1]: 48 nM

COc1c(C)cnc(Cn2cnc3c(Cl)nc(N)nc32)c1C [BIIB021]
inhibition at 72 h, 10 µM [2]: 51.3% | inhibition at 10 µM [3]: 71.9% | inhibition at 10 µM [4]: 86.2% | inhibition at 10 µM [5]: 84.8%

COc1cc(Cc2cn(Cc3ncc(C)c(OC)c3C)c3nc(N)nc(Cl)c23)ccc1Br
IC50 [1]: 79 nM

CC(C)NCCCn1c(Sc2cc3c(cc2I)OCO3)nc2c(N)ncnc21 [PU-H71]
GI50 [6]: 83 nM | inhibition at 10 µM [3]: 78.4% | inhibition at 10 µM [4]: 65.3% | inhibition at 10 µM [5]: 70.5% | GI50 [7]: 1290 nM | GI50 [8]: 3.63 µM | GI50 [9]: 87 nM | GI50 [10]: 60 nM | GI50 (cells [11]): 155 nM | GI50 (cells [12]): 1510 nM | GI50 (cells [13]): 479 nM | GI50 (cells [14]): 46 nM | GI50 (cells [15]): 48 nM | GI50 (cells [16]): 132 nM | GI50 (cells [17]): 324 nM | GI50 (cells [18]): 162 nM | GI50 (cells [19]): 174 nM | GI50 (cells [20]): 759 nM | GI50 (cells [21]): 525 nM | GI50 (cells [22]): 295 nM | GI50 (cells [23]): 437 nM | GI50 (cells [24]): 45 nM | GI50 (cells [25]): 513 nM | GI50 (cells [26]): 155 nM | GI50 (cells [27]): 3.02 µM | GI50 (cells [28]): 33.1 µM | GI50 (cells [29]): 589 nM | GI50 (cells [30]): 89 nM | GI50 (cells [31]): 372 nM | GI50 (cells [32]): 309 nM | GI50 (cells [33]): 417 nM | GI50 (cells [34]): 457 nM | GI50 (cells [35]): 355 nM | GI50 (cells [36]): 91 nM | GI50 (cells [37]): 234 nM | GI50 (cells [38]): 123 nM | GI50 (cells [39]): 79 nM | GI50 (cells [40]): 129 nM | GI50 (cells [41]): 646 nM | GI50 (cells [42]): 724 nM | GI50 (cells [43]): 851 nM | GI50 (cells [44]): 145 nM | GI50 (cells [45]): 2090 nM | GI50 (cells [46]): 59 nM | GI50 (cells [47]): 59 nM | GI50 (cells [48]): 38 nM | GI50 (cells [49]): 63 nM | GI50 (cells [50]): 437 nM | GI50 (cells [51]): 282 nM | GI50 (cells [52]): 48 nM | GI50 (cells [53]): 59 nM | GI50 (cells [54]): 58 nM | GI50 (cells [55]): 89 nM | GI50 (cells [56]): 759 nM | GI50 (cells [57]): 263 nM | GI50 (cells [58]): 288 nM | GI50 (cells [59]): 2510 nM | GI50 (cells [60]): 1510 nM | GI50 (cells [61]): 91 nM | GI50 (cells [62]): 71 nM | GI50 (cells [63]): 427 nM | GI50 (cells [64]): 63 nM

Nc1nc(Cl)c2c(Cc3ccccc3)cn(Cc3cc4c(cc3Br)OCO4)c2n1
inhibition at 72 h, 10 µM [2]: 20.7% | inhibition at 10 µM [3]: 70.4% | inhibition at 10 µM [4]: 40.9% | inhibition at 10 µM [5]: 69.9% | IC50 [1]: 650 nM

Nc1nc(Cl)c2c(Cc3ccccc3)cn(Cc3cc4c(cc3I)OCO4)c2n1
inhibition at 72 h, 10 µM [2]: 36.2% | inhibition at 10 µM [3]: 74.5% | inhibition at 10 µM [4]: 63.8% | inhibition at 10 µM [5]: 74% | IC50 [1]: 750 nM

COc1c(C)cnc(Cn2cc(Cc3cccc(C)c3)c3c(Cl)nc(N)nc32)c1C
IC50 [1]: 51 nM

COc1ccc(Cc2cn(Cc3ncc(C)c(OC)c3C)c3nc(N)nc(Cl)c23)cc1
inhibition at 72 h, 10 µM [2]: 10.1% | inhibition at 10 µM [3]: 80.9% | inhibition at 10 µM [4]: 69.4% | inhibition at 10 µM [5]: 80.1% | IC50 [1]: 94 nM

Nc1nc(Cl)c2c(Cc3ccccc3)cn(Cc3ccc4c(c3)OCO4)c2n1
inhibition at 72 h, 10 µM [2]: 11.2% | inhibition at 10 µM [3]: 48.8% | inhibition at 10 µM [4]: 4.32% | inhibition at 10 µM [5]: 54%

C=CCNC1=C2C[C@@H](C)C[C@H](OC)[C@H](O)[C@@H](C)/C=C(\C)[C@H](OC(N)=O)[C@@H](OC)/C=C\C=C(/C)C(=O)NC(=CC1=O)C2=O [TANESPIMYCIN]
inhibition at 72 h, 10 µM [2]: 65.5% | inhibition at 10 µM [3]: 74.4% | inhibition at 10 µM [4]: 88.9% | inhibition at 10 µM [5]: 79.7%

COc1c(C)cnc(Cn2cc(Cc3cccc(C(F)(F)F)c3)c3c(Cl)nc(N)nc32)c1C
IC50 [1]: 8700 nM

COc1c(C)cnc(Cn2cc(Cc3ccc(C)cc3)c3c(Cl)nc(N)nc32)c1C
IC50 [1]: 58 nM

COc1c(C)cnc(Cn2cc(Cc3ccccc3)c3c(Cl)nc(N)nc32)c1C
IC50 [1]: 36 nM | inhibition [65]: Dose-dependent effect | inhibition [66]: Dose-dependent effect | inhibition [67]: Dose-dependent effect | inhibition [68]: Dose-dependent effect | inhibition [69]: Dose-dependent effect

From ChEMBL document CHEMBL3872253, “Synthesis and in vitro antiproliferative activity of C5-benzyl substituted 2-amino-pyrrolo[2,3-d]pyrimidines as potent Hsp90 inhibitors” (Bioorg Med Chem Lett, 2017)
